Test results from patent US11149028B2, “Methods for treating melanoma using small molecules” (NOVA SOUTHEASTERN UNIVERSITY, priority 2016, dated 2021).
“Also recorded” adds a separate entry of the source. Peptide text beside a SMILES is read from it. * marks the point of attachment. Cbz = O=C(OCc1ccccc1)*; CH2F = FC*

Legend:
[1] = system: cleaved lamin A/C in WM266-4 cells; assay: Western blotting for lamin A/C cleavage; type: cell-based, human
Method: (§1) 1×10^6 of WM266-4 or M14 cells were seeded in 3 mL of E-MEM or RPMI-1640 medium supplemented with 10% FBS and 1% penicillin/streptomycin in 6 cm plates. […] After washing with TBST, the membranes were treated with chemilumiscent horseradish peroxidase detection reagent (Thermo Scientific, Cat #32209) and exposed to autoradiography film (Denville Scientific, Inc., Metuchen, N.J., USA, cat #E3018). ImageJ software (NIH, Bethesda, Md.) was used to quantify the intensity of proteins bands. The protein bands were normalized against loading controls.

[2] = system: LC3-II and beclin-1 in WM266-4 cells; assay: Western blotting for LC3 and beclin-1, WM266-4; type: cell-based, human
Method: as §1, with “controls (β-actin) and expressed as a fold of an untreated control.” for “controls.”

WM266-4 cells [3] = assay: CellTiter-Glo cell viability assay, WM266-4 (including rescue assays); type: cell-based, human
Method: Cells were plated in 384-well plates in 8 μL of media. Test compounds and dabrafenib (pharmacological assay control) were prepared as 10-point, 1:3 serial dilutions starting at 300 μM, then added to the cells (4 μL per well) using the Biomek Plates were incubated for 72 h at 37° C., 5% CO2 and 95% relative humidity. After incubation, 4 μL of CellTiter-Glo® (Promega cat #: G7570) were added to each well, and incubated for 15 min at room temperature. Luminescence was recorded using a Biotek Synergy H4 multimode microplate reader. Viability was expressed as a percentage relative to wells containing media only (0%) and wells containing cells treated with DMSO only (100%). Three parameters were calculated on a per-plate basis: (a) the signal-to-background ratio (SB); (b) the coefficient for variation [CV; CV=(standard deviation/mean)×100)] for all compound test wells; and (c) the Z′-factor (18). The IC50 value of the pharmacological control (dabrafenib, LC Laboratories #G-4408) was also calculated to ascertain the assay robustness. In case of viability rescue assays, cells were pre-treated with caspase, calpain, and autophagy inhibitors for 1-3 h before addition of test compounds. Time course viability assay was done with luminescence measurements performed at 4, 24, 48, and 72 h.

calpain in WM266-4 cells = assay: Calpain activity assay (Calpain-Glo); type: cell-based, human; conditions: 25 μM inhibitor, 100 μM 2155-14
Method: The Calpain-Glo Protease Assay (Promega cat #) was used to measure the calpain enzyme activity in live cells, according to the manufacturer's instructions. 1,250 of WM-266-4 cells were plated in 384-well white TC-treated plates in 5 μL of serum-free EMEM media. The cells were incubated overnight at 37° C., 5% CO2 and 95% relative humidity and 5 μL of test compounds 2155-14, (100 μM), calpain inhibitor III and PD151746 (25 μM) were added alone or in combination and incubated at 37° C., 5% CO2, and 95% relative humidity for 0.5, 4, and 24 h. After incubation, 10 μL, of a freshly prepared dilution of the Calpain-Glo Reagent stock solution (consisting of Suc-LLVY-Glo™ substrate, Calpain-Glo™ buffer, Luciferin Detection Reagent, and CaCl2) was added to cells at above mentioned times and luminescence was recorded with a Neo 2 microplate reader (Biotek Inc). All experiments were performed in triplicate and the values provided are the calculated average of at least three independent experiments.

M14 cells = conditions: time course 4-72 h; time stated at the place
Method: ApoTox-Glo™ Triplex Assay which allows one to simultaneously assess the effect of small molecules on cell viability, toxicity, caspase activity, and cell cycle all in the same well (Niles, A. L.; Moravec, R. A.; Riss, T. L. In vitro viability and cytotoxicity testing and same-well multi-parametric combinations for high throughput screening. Curr Chem Genomics 2009, 3, 33-41) was utilized. First, a mixture of 2 fluorogenic substrates was added to cells. GF-AFC substrate is cell-permeant and non-lytic to cells, allowing the measurement of active protease inside live cells. The second substrate (bis-AAF-R110 Substrate) is not cell-permeable and is only cleaved when proteases are released from cells due to the loss of membrane integrity typical of cell death. This step generates an inversely correlated measurement of cell viability and toxicity.
The second addition is luminogenic DEVD-peptide substrate for caspase-3/7 and Ultra-Glo™ Recombinant Thermostable Luciferase. Caspase-3/7 cleavage of the substrate generates a luminescent signal which correlates with caspase-3/7 activation as a key indicator of apoptosis. As markers for cytotoxicity and apoptosis are transient, the assay was conducted in time course format with time points at 4, 24, 48, and 72 h.
M14 #5 cells were plated in 384-well format at a density of 1,250 cells in 5 μL of serum-free DMEM media and incubated at 37° C. in 5% CO2 for 4 h. Control and test compounds were serially diluted in a ratio of 1:3 and added to wells in 4 μL. […] Plates were incubated at 37° C. in 5% CO2 for 4, 24, 48, and 72 h. At the end of each time point Viability/Cytotoxicity™ Reagent was prepared containing 400 μM glycylphenylalanyl-aminofluorocoumarin (GF-AFC) substrate (cleavable by live cell proteases) and 400 μM bis-alanylalanyl-phenylalanyl-rhodamine 110 (bis-AAF-R110) substrate (cleavable by dead cell proteases). 4 μL of the Viability/Cytotoxicity™ Reagent was used per well. The plate was incubated for 30 min at 37° C. Fluorescence was read at λEx=400 nm and λEm=505 nm for GF-AFC and λEx=485 nm and λEm=520 nm for bis-AAF-R110 on the BioTek Synergy™ 4 Multi-Mode Microplate Reader. Caspase-Glo® 3/7 Reagent was then added in 12 μL volume. The plate was incubated for 30 min at room temperature and luminescence was measured on the BioTek Synergy™ 4 Multi-Mode Microplate Reader.

WM266-4 cells [4] = assay: Annexin V flow cytometry assay; type: cell-based, human; conditions: 4 h
Source text: After 4, 24 and 48 hrs of compound exposure the adherent and floating cells were combined and stained using the TACS Annexin V-FITC Apoptosis detection kit (Trevigen Inc, Gaithersburg, Md., USA) using manufacturer's protocol. Viable, necrotic, early and late apoptotic cells were counted using Accuri flow cytometer as per the manufacturer instructions.

[5] = 10 μM inhibitor 3 h, then 100 μM 2155-14, 24 h
[6] = 50 μM inhibitor, then 100 μM 2155-14
[7] = cells treated with 100 μM 2155-14, inhibitor 10 μM

COC(=O)C[C@H](NC(=O)[C@H](C)NC(=O)[C@@H](NC(=O)OCc1ccccc1)C(C)C)C(=O)CF [pan-caspase inhibitor, Z-VAD-FMK, reference compound] (Cbz-Val-Ala-Asp(OMe)-CH2F)
lamin A/C cleavage after caspase inhibitor pre-treatment [1, 5]: Only partial inhibition of lamin A/C cleavage
lamin A/C cleavage after caspase inhibitor pre-treatment [1, 6]: almost completely abrogated

CCN(CCO)CCCC(C)Nc1ccnc2cc(Cl)ccc12 (centres unmarked) [hydroxychloroquine, reference compound]
cleaved lamin A/C level after autophagy inhibitor pretreatment [1, 7]: increased levels
LC3-II level after autophagy inhibitor pretreatment [2, 7]: increased levels

O=C(O)/C(S)=C/c1c[nH]c2ccc(F)cc12 [PD151746, reference compound]
cell viability restored in presence of 2155-14 (WM266-4 cells [3]; 24 h, 25 μM inhibitor, 100 μM 2155-14): ~75%
cell viability restored in presence of 2155-14 (WM266-4 cells [3]; 48 h, 25 μM inhibitor, 100 μM 2155-14): ~50%
cell viability in presence of 2155-14 (WM266-4 cells [3]; 72 h, 25 μM inhibitor, 100 μM 2155-14): all cells were dead
calpain activity induced by 2155-14 after calpain inhibitor pre-treatment (calpain in WM266-4 cells): shut down calpain activity induced by 2155-14 at 30 min and 4 h but not at 24 h

C[C@H](CCC(=O)O)C[C@H](C)C[C@H](C)C(=O)/C=C(\O)[C@H](C)C[C@H](C)C/C=C/[C@@H](C)[C@@H](O)[C@@H](C)[C@@H](O)C[C@@H]1CC[C@@](C)([C@H]2CC[C@@](C)([C@@H](C)O)O2)O1 [ionomycin, reference compound]
ApoTox caspase-3/7 activity (M14 cells): did not induce a spike in caspase activity at any of the time points
ApoTox cytotoxicity (M14 cells): strong cytotoxicity response
ApoTox viability (live cell protease) (M14 cells): dose dependent loss of viability as early as 4 h

CN[C@@H]1C[C@H]2O[C@@](C)([C@@H]1OC)n1c3ccccc3c3c4c(c5c6ccccc6n2c5c31)C(=O)NC4 [staurosporine, reference compound]
apoptosis detected (WM266-4 cells [4]): apoptosis was detected only in staurosporine-treated cells

CC[C@H](C)[C@H](NC(=O)[C@H](CCC(=O)OC)NC(=O)[C@@H](NC(=O)OCc1ccccc1)C(C)C)C(=O)N[C@@H](CC(=O)OC)C(=O)CF [caspase 6 inhibitor, Z-VEID-FMK, reference compound] (Cbz-VE(OMe)ID(OMe)-CH2F)
lamin A/C cleavage after caspase inhibitor pre-treatment [1, 5]: Only partial inhibition of lamin A/C cleavage
lamin A/C cleavage after caspase inhibitor pre-treatment [1, 6]: almost completely abrogated

CC(C)(C)c1ccc(C(O)CCCN2CCC(C(O)(c3ccccc3)c3ccccc3)CC2)cc1 (centres unmarked) [terfenadine, reference compound]
ApoTox caspase-3/7 activity (M14 cells): early caspase activity spike (4-24 h)
ApoTox viability (live cell protease) (M14 cells): early loss of cell viability

O=C(CCCC[C@@H]1SC[C@@H]2NC(=O)N[C@@H]21)NCCCC[C@@H](CN1CCC[C@H]1CN1C(=O)C(=O)NC[C@@H]1Cc1ccccc1)N1C[C@H](Cc2ccc(O)cc2)N(CCc2ccccc2)C(=O)C1=O [Compound 2529-5, N—((S)-6-((S)-2-(((S)-6-benzyl-2,3-dioxopiperazin-1-yl)methyl)pyrrolidin-1-yl)-5-((S)-5-(4-hydroxybenzyl)-2,3-dioxo-4-phenethylpiperazin-1-yl)hexyl)-5-((3aS,4S,6aR)-2-oxohexahydro-1H-thieno[3,4-d]imidazol-4-yl)pentanamide]
cleaved lamin A/C level ([1]; 100 μM, 24 h): did not significantly increase; also recorded: had no effect on cleavage of lamin A/C
LC3-II level ([2]; 100 μM, 24 h): did not significantly increase
IC50 (WM266-4 cells [3]; Homo sapiens, WM 266-4, 72 h, 72 h): > 100 µM
cytotoxicity at 100 µM (WM266-4 cells [3]; Homo sapiens, WM 266-4, 100 μM, 72 h, read-out: maximal inhibition of cell viability): 37%

MDL-28170 [reference compound]
viability, combination with 2155-14 (WM266-4 cells [3]; 25 μM inhibitor, 100 μM 2155-14): even more pronounced negative effect on viability of cells than either compound alone
calpain activity induced by 2155-14 after calpain inhibitor pre-treatment (calpain in WM266-4 cells): shut down calpain activity induced by 2155-14 at 30 min and 4 h but not at 24 h

CN(C)c1cccc2c(S(=O)(=O)NCCCC[C@@H](CN3CCC[C@H]3CN3C(=O)C(=O)NC[C@@H]3Cc3ccccc3)N3C[C@H](Cc4ccc(O)cc4)N(CCc4ccccc4)C(=O)C3=O)cccc12 [Compound 2476-66.2, N—((S)-6-((S)-2-(((S)-6-benzyl-2,3-dioxopiperazin-1-yl)methyl)pyrrolidin-1-yl)-5-((S)-5-(4-hydroxybenzyl)-2,3-dioxo-4-phenethylpiperazin-1-yl)hexyl)-5-(dimethylamino)naphthalene-1-sulfonamide]
lamin A/C cleavage ([1]; 2.5 μM, 24 hr): no cleavage of lamin A/C
lamin A/C western blot ([1]; 5 μM, 24 hr): striking increase of cleaved lamin A/C
LC3-II level ([2]; 2.5 μM, 24 hr): no cleavage of lamin A/C or increase of levels of LC3-II was detected
LC3 western blot ([2]; 5 μM, 24 hr): neither of LC3 isoforms nor actin were detected

COC(=O)C[C@H](NC(=O)[C@H](C)NC(=O)[C@@H](NC(=O)[C@H](CC(=O)OC)NC(=O)[C@@H](NC(=O)OCc1ccccc1)C(C)C)C(C)C)C(=O)CF [caspase 2 inhibitor, Z-VDVAD-FMK, reference compound] (Cbz-VD(OMe)VAD(OMe)-CH2F)
lamin A/C cleavage after caspase inhibitor pre-treatment [1, 6]: to the lesser extent

CC[C@H](C)[C@H](NC(=O)OCc1ccccc1)C(=O)N[C@@H](CCC(=O)OC)C(=O)N[C@H](C(=O)N[C@@H](CC(=O)OC)C(=O)CF)[C@@H](C)O [caspase 8 inhibitor, Z-IETD-FMK, reference compound] (Cbz-IE(OMe)TD(OMe)-CH2F)
lamin A/C cleavage after caspase inhibitor pre-treatment [1, 5]: Only partial inhibition of lamin A/C cleavage
lamin A/C cleavage after caspase inhibitor pre-treatment [1, 6]: almost completely abrogated
